Test results published in patent US20160130630A1, “METHOD FOR DETECTING CAMPYLOBACTER” (JNC CORPORATION, priority 2014, published 2016).

Tests used:
Campylobacter bacteria = experiment: growth inhibition of Campylobacter bacteria by cephamycin antibiotics; format: cell-based
ESBL-producing bacteria = experiment: growth inhibition of ESBL-producing bacteria; format: cell-based

CO[C@@]1(NC(=O)Cc2cccs2)C(=O)N2C(C(=O)O)=C(COC(N)=O)CS[C@@H]21 [Cefoxitin]
inhibition of growth of Campylobacter bacteria (Campylobacter bacteria): does not inhibit growth
inhibition of growth of ESBL-producing bacteria (ESBL-producing bacteria): inhibits the growth
